In patent US8815863B2, “Compounds and therapeutic use thereof for protein kinase inhibition” (priority 2009, dated 2014):
Values after ≈ are worked out from the molar mass of the structure shown. “Also recorded” adds a separate entry of the source. Where two headings read alike, the source gives them in different places. Blank lines part the entries; values can stand above or below the compound they belong to.

Key:
[1] = target: T1, Chk2 (Homo sapiens, UniProt O96017); test: Kinase activity measurement (K-LISA), Chk2; format: biochemical
T1 construct: purchased Upstate Biotechnology, Inc
Description: (§1) The K-LISA™ Chk-1/Chk2 Activity Kit was supplied by Calibiochem (Cat. No. CBA020). Chk1 and Chk2 are from Upstate Biotechnology, Inc., and C-Met, HER2, EGFR are from Sigma. The Chk Peptide ([…]) (SEQ ID NO: 1) is from Cell Signaling, Inc., (Beverly, Mass., USA), and is stored at −70° C.
(§2) Kinase activity measurements: Enzyme, sample, Chk peptide, 5 μm ATP, and reaction buffer are added to the holes of biotinylated reaction plates. After the reaction is terminated with a stop buffer, the contents are discarded, replaced with 100 μl/hole of serine kinase antibody, to detect phosphorylation, and HRP-labeled goat-anti-rabbit IgG is added and incubated at room temperature for 1 hour. TMB reaction is conducted to determine substrate phosphorylation, with proper controls. OD450 is measured using VERSAmax (Sunnyvale, Calif., USA). The rate of inhibition is calculated as the follows: Rate of Inhibition (I)=(reaction hole OD Value−OD value of Enzyme-free control)/(OD value of negative control−OD value of enzyme-free control)×100%.

[2] = test system: Human colon cancer HT-29; test: In vitro anti-cancer cell activity, HT-29; format: cell-based; settings: read-out: In vitro anti-cancer cell activities IC50, Human colon cancer HT-29
Description: (§3) Some of the above compounds are tested in vitro or in vivo for their anti-cancer or anti-tumor activities, as well as cellular toxicity tests using SRB and MTT methods. The in vitro anti-cancer effects on human cancer HT-29 and mouse lung cancer cell 3LL are summarized in Table 1, and the effects on treating transplanted human colon cancer […] on nude mice are summarized in Table 2.

[3] = test system: Mouse Lung Cancer (3LL); test: In vitro anti-cancer cell activity, 3LL; format: cell-based; settings: read-out: In vitro anti-cancer cell activities IC50, Mouse Lung Cancer (3LL)
Description: as §3

[4] = test system: HT-29 Cell line; test: SRB cell multiplication test, sensitizing to cytotoxic antitumor drugs; settings: for sensitizing effects on cytotoxic antitumor drugs at the cellular level (in words): DDP, 5-fu, pemetrexed, oxaliplatin as named in the sentence
Description: 3.2 Cell Lines: HT-29 Cell line (from ATCC).
Test Protocol: The effects of the compounds on cancer cell multiplication was measured using Sulforhodamine B (SRB). Specifically, log phase cells are inoculated into the holes of 96-hole culture plates, allowed to grow using the wall-adhesion procedure at 37° C. under 5% CO2. The test compound at 9 different concentrations were added, each concentration in duplicate, with appropriate saline water and cell-less controls. The cells are cultured for a further 72 hours, and fixed with TCA, and SRB is added for staining, and washed, and air-dried. After adding the Tris solution, the OD value was measured at 510 nm using a Spectra Max 190. The rate of inhibition is calculated according to the formula below: Rate of Inhibition=(ODcontrol−ODdrug)/ODcontrol×100%.
The IC50 is calculated based on the above ratios.

[5] = test system: human low differentiation stomach cancer BGC-823; test: MTT cytotoxicity, BGC-823; format: cell-based
Description: (§4) Cell lines: human low differentiation stomach cancer BGC-823, human liver cancer QGY-7701, mouse lung cancer 3LL.
(§5) Experimental Details: The cyto-toxicity of XC608 is measured using the MTT method. Specifically: (1) cell culture: (i) frozen cells are removed from liquid nitrogen, rapidly thawed in 37° C. water bath; added to 6 ml DMEM culture medium in a 10 ml centrifuge tubes under sterile conditions, centrifuged at 1000 rpm for 5 min., with the supernatant removed. To the sediment is added 5-6 ml of DMEM medium, and re-suspended and cultured overnight at 37° C. (ii) The cells are centrifuged, washed twice with PBS, and treated with 3-4 drops of trypsin solution for about 3 minute at 37° C., and monitored under microscope to ensure that all cells are separated from the culture tube walls, and re-suspended in additional DMEM medium. […] (2) Test compound preparation: XC608 and XC302 are dissolved in PBS and serial diluted to 1000, 100, 10, 1, 0.1 and 0.01 μg/ml. (3) The prepared test compound solution is added to the holes of a 96-hole culture plate, 10 μl/hole, with two holes per concentration point, and 10 μl PBS as control. (4) Prepare a suspension of log phase cell in a DMEM medium containing 10% new born bovine serum with a cell concentration of 2×10^5/ml.
(§6) (5) add 90 μl cell suspension to each of the holes containing the test compound or control. […]

[6] = test system: human liver cancer QGY-7701; test: MTT cytotoxicity, QGY-7701; format: cell-based
Description: as §4, §5, §6

[7] = test system: mouse lung cancer 3LL; test: MTT cytotoxicity, 3LL; format: cell-based; settings: 48 hours
Description: as §4, §5, §6

[8] = target: T2, Chk1 (Homo sapiens, UniProt O14757); test: Kinase activity measurement (K-LISA), Chk1; format: biochemical
T2 construct: purchased Upstate Biotechnology, Inc
T2 sequence (O14757 1-476): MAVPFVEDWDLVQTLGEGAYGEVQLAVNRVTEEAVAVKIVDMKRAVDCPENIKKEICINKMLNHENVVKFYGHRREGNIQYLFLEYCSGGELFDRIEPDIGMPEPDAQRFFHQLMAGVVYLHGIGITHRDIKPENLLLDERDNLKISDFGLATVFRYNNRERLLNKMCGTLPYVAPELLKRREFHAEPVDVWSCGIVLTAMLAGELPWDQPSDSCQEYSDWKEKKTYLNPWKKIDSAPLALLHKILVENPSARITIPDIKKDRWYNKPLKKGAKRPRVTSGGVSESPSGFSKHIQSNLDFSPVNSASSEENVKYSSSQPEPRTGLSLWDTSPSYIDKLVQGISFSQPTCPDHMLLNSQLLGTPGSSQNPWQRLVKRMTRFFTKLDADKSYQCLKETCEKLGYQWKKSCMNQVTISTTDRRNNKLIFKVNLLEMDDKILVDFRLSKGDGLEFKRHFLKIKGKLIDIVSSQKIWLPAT
Description: The K-LISA™ Chk-1/Chk2 Activity Kit was supplied by Calibiochem (Cat. No. CBA020). Chk1 and Chk2 are from Upstate Biotechnology, Inc., and C-Met, HER2, EGFR are from Sigma.
as §2, with “After” for “Kinase activity measurements: Enzyme, sample, Chk peptide, 5 μm ATP, and reaction buffer are added to the holes of biotinylated reaction plates. After”

[9] = target: T3, c-Met (Homo sapiens, UniProt P08581); test: Kinase activity measurement, c-Met; format: biochemical
T3 construct: purchased Sigma
Description: as §1, §2

[10] = target: T4, HER2 (Homo sapiens, UniProt P04626); test: Kinase activity measurement, HER2; format: biochemical
T4 construct: purchased Sigma
Description: as §1, §2

[11] = target: T5, EGFR (Homo sapiens, UniProt P00533); test: Kinase activity measurement, EGFR; format: biochemical
T5 construct: purchased Sigma
Description: as §1, §2

[12] = test system: cdc2 phosphorylation; test: cdc2 phosphorylation induced by topoisomerase I; format: cell-based
Description: The effects of XC608 on the activity of protein kinases Chk1, Chk2 and c-met, and on cells entering cell cycle after drug-induced DNA damages and cellular reactions to DNA damages are studied.

[13] = test system: human colon cancer HT-29; test: Nude mice transplanted with human colon cancer HT-29, XC608 with ADR and 5-fu; format: in vivo; settings: HT-29 in nude mice
Description: (§7) Nude mice transplanted with human colon cancer HT-29 and SW-620 and breast cancer MDA-MB-231 are tested using XC608 alone and in combination with ADR and 5-fu.

[14] = test system: human colon cancer SW-620; test: Nude mice transplanted with human colon cancer SW-620, XC608 with ADR and 5-fu; format: in vivo; settings: SW-620 in nude mice
Description: as §7

[15] = Homo sapiens, HT-29, 72 h, read-out: IC50 Drug alone
[16] = read-out: IC50 +10 nM AZD7762, HT-29, SRB, 72 hours, drug +10 nM AZD7762
[17] = read-out: IC50 +100 nM AZD7762, HT-29, SRB, 72 hours, drug +100 nM AZD7762
[18] = read-out: IC50 +1 μM XC608, HT-29, SRB, 72 hours, drug +1 μM XC608
[19] = read-out: IC50 Drug alone, HT-29, SRB, 72 hours, drug alone

T1 sequence (O96017 whole entry): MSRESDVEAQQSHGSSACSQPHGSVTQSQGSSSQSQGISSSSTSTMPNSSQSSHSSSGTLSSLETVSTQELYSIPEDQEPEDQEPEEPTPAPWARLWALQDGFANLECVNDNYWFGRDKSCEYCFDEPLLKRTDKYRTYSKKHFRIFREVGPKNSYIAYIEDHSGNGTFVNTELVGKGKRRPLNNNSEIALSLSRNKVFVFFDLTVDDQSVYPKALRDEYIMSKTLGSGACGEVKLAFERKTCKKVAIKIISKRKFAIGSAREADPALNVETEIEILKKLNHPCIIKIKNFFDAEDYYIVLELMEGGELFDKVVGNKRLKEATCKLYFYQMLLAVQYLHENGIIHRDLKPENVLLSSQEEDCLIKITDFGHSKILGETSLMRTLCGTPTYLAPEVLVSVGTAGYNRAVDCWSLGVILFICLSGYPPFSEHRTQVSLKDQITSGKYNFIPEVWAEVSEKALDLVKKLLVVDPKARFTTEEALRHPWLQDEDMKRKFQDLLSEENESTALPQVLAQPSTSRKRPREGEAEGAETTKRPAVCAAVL
T3 sequence (P08581 25-1390): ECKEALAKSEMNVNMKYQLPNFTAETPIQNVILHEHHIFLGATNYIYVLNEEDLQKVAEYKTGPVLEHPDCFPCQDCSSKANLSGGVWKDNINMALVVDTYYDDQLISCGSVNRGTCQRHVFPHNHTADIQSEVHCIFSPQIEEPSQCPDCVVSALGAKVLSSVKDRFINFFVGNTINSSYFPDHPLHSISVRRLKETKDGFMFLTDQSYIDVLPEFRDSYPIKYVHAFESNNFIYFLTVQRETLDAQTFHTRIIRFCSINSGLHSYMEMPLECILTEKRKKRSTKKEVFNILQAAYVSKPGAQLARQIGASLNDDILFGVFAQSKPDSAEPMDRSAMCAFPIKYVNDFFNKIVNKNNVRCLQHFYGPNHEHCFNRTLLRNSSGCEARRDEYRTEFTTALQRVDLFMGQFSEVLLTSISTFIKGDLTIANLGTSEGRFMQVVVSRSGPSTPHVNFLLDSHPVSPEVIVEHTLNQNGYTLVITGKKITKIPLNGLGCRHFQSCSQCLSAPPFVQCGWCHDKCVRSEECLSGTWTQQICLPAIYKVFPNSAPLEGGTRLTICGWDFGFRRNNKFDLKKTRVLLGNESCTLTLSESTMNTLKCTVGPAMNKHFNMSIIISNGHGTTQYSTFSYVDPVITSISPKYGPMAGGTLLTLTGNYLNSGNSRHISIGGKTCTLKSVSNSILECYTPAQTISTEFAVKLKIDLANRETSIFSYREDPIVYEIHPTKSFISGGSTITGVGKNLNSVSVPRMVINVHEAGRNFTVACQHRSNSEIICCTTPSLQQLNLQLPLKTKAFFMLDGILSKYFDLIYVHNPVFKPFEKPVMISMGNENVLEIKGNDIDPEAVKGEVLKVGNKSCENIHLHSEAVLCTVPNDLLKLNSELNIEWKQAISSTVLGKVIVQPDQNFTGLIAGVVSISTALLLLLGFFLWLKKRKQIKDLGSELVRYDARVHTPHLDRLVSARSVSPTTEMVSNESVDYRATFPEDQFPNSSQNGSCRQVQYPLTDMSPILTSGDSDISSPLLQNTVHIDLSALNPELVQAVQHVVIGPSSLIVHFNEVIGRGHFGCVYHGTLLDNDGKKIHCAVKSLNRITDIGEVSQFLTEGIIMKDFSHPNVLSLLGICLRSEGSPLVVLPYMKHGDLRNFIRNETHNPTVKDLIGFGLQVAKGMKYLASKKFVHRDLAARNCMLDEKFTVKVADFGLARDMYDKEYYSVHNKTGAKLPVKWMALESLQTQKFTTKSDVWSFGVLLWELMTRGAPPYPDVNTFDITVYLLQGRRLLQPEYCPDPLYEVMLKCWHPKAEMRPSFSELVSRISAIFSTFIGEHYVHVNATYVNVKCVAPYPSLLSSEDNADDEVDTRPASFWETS
T5 sequence (P00533 25-1210): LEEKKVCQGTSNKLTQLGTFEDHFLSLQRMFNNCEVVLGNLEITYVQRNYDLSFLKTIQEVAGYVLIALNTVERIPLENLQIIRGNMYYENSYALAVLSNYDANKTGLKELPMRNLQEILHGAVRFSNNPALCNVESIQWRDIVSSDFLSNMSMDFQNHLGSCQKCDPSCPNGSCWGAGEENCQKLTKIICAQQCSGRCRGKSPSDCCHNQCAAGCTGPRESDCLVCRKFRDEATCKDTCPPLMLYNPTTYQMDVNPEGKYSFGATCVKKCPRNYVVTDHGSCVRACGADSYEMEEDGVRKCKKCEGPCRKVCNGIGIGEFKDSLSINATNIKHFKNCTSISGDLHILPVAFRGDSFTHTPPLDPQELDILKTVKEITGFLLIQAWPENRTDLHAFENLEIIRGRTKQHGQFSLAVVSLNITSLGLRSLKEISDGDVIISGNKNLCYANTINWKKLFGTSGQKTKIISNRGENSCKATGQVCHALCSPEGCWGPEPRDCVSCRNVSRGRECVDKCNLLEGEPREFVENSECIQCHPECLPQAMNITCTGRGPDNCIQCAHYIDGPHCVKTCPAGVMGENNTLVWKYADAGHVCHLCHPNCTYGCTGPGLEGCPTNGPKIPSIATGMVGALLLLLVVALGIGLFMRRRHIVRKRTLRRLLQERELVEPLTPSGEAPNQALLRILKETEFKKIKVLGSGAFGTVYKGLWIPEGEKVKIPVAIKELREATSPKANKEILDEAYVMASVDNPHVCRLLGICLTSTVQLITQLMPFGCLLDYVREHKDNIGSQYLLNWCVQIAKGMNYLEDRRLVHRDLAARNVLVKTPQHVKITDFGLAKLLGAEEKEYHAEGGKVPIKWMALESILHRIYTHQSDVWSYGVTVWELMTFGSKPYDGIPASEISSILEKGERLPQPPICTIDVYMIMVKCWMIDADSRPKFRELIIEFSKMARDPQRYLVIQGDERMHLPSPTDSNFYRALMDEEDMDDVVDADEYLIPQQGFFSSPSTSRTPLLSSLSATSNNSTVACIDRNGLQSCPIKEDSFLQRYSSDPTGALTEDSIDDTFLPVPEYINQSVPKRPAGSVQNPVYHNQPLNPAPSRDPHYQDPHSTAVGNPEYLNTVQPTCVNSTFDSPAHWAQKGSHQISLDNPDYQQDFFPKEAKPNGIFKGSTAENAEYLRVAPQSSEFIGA
T4 sequence (P04626 23-1255): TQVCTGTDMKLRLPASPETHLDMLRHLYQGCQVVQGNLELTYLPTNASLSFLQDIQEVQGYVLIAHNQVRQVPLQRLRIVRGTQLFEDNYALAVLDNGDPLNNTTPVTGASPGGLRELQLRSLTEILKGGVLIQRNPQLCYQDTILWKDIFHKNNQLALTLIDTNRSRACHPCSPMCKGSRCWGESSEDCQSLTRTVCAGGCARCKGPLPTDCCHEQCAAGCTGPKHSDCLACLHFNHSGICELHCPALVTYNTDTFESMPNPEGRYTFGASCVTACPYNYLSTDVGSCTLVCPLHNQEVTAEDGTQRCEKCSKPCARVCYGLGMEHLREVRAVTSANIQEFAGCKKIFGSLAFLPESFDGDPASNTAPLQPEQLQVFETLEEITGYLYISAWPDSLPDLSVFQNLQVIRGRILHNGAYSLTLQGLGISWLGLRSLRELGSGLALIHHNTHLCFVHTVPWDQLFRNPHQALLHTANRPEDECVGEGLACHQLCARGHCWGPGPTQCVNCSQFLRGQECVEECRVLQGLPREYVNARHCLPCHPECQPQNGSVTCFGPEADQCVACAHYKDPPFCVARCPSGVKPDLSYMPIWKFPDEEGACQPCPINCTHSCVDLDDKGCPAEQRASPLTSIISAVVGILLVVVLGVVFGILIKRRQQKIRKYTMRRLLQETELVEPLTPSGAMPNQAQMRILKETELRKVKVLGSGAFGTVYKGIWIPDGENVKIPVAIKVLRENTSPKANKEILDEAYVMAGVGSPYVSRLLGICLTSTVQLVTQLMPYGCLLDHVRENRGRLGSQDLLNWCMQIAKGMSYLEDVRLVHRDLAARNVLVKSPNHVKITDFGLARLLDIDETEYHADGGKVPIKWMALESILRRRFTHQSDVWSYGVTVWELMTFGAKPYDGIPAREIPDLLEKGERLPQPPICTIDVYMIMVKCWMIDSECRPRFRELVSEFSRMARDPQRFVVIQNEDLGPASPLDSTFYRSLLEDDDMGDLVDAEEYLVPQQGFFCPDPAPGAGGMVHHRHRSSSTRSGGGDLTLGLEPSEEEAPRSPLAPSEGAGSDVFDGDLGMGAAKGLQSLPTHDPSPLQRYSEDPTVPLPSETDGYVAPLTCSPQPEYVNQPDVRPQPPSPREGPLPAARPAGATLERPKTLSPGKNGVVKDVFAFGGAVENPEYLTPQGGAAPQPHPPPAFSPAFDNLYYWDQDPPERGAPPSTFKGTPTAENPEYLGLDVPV

SMILES: NC(=O)Nc1cc(-c2cccc(F)c2)sc1C(=O)N[C@H]1CCCNC1 [AZD7762]
inhibition at 0.1 µM ([1]; 100 nM, read-out: Inhibition (%) (Mean ± SD) Chk2): 99%

IC50 [2]: 1580 nM
IC50 [3]: 1880 nM
SMILES: NC(=O)c1nnc(NC2CCCNC2)c2cc(-c3ccc(F)cc3)sc12 (centres unmarked) [Compound 1, 2-(4-fluorophenyl)-4-(3-piperidineamino)-thieno[2,3-d]pyridazine-7-carboxylic acid amide]

SMILES: O=c1[nH]cc(F)c(=O)[nH]1 [Compound 5-Fu, 5-fluorouracil]
IC50 [4, 15]: 1100 nM
IC50 [4, 16]: 1000 nM
IC50 [4, 17]: 300 nM
IC50 [4, 18]: 200 nM

SMILES: N.N.[Cl][Pt][Cl] [DDP, cisplatin]
IC50 [4, 16]: 5200 nM
IC50 [4, 17]: 1300 nM
IC50 [4, 18]: 1300 nM
IC50 [4, 19]: 7700 nM

SMILES: CC(=O)O[C@H]1C(=O)[C@@]2(C)[C@H]([C@H](OC(=O)c3ccccc3)[C@]3(O)C[C@H](OC(=O)[C@H](O)[C@@H](NC(=O)c4ccccc4)c4ccccc4)C(C)=C1C3(C)C)[C@]1(OC(C)=O)CO[C@@H]1C[C@@H]2O [Paclitaxel, paclitaxel]
IC50 [4, 15]: 3 nM
IC50 [4, 17]: 5 nM
IC50 [4, 18]: 2 nM

SMILES: CS(=O)(=O)O.CS(=O)(=O)O.O.O.c1cnc2ccc(Nc3nc(NC4CC4)c4nc[nH]c4n3)cc2c1 [XC302]
IC50, inhibition of cancer cell multiplication, BGC-823 ([5]; 48 hours): 4.77 µg/mL
IC50, inhibition of cancer cell multiplication, QGY-7701 ([6]; 48 hours): 6.69 µg/mL
IC50, inhibition of cancer cell multiplication, 3LL [7]: 2.96 µg/mL

specificity for Chk1 (conclusion in words) [8]: specific Chk1 inhibitor
inhibition at 1 µM ([8]; 1 μM, read-out: Inhibition (%) (Mean ± SD) Chk1): 85 ± 11.1%
inhibition at 1 µM ([1]; 1 μM, read-out: Inhibition (%) (Mean ± SD) Chk2): 90 ± 13.2%
effect on c-met (in words) [9]: not apparent effect
inhibition at 1 µM ([9]; 1 μM, read-out: Inhibition (%) (Mean ± SD) c-Met): 15.9%
effect on HER2 (in words) [10]: not apparent effect
inhibition at 1 µM ([10]; 1 μM, read-out: Inhibition (%) (Mean ± SD) HER2): 10.2 ± 1.3%
effect on EGFR (in words) [11]: not apparent effect
inhibition at 1 µM ([11]; 1 μM, read-out: Inhibition (%) (Mean ± SD) EGFR): 15.9 ± 5.3%
effect on cdc2 phosphorylation induced by topoisomerase I (in words) [12]: eliminates; also recorded: reduces
SMILES: NC(=O)c1nnc(N[C@H]2CCCNC2)c2cc(-c3cccc(F)c3)sc12 [XC608]
IC50 ([5]; Homo sapiens, BGC-823, 48 hours, read-out: IC50, inhibition of cancer cell multiplication, BGC-823): 7.11 µg/mL (≈ 19.1 µM)
IC50 ([6]; Homo sapiens, QGY7701, 48 hours, read-out: IC50, inhibition of cancer cell multiplication, QGY-7701): 5.14 µg/mL (≈ 13.8 µM)
IC50 ([7]; Mus musculus, read-out: IC50, inhibition of cancer cell multiplication, 3LL): 1.05 µg/mL (≈ 2.83 µM)
effect on activity of Chk1 (in words) [8]: clearly inhibits; also recorded: strongly inhibits
effect on activity of Chk2 (in words) [1]: clearly inhibits; also recorded: strongly inhibits
sensitizing effects on the treatment effects of ADR and 5-fu (in words) [13]: significant sensitizing effects
sensitizing effects on the treatment effects of ADR and 5-fu (in words) [14]: significant sensitizing effects
sensitizing effect on gemcitabine ([4]; cell cultures, gemcitabine): more than 20 times
sensitizing effects on cytotoxic antitumor drugs at the cellular level (in words) ([4]; gemcitabine): strong sensitizing effects
sensitizing effects on cytotoxic antitumor drugs at the cellular level (in words) ([4]; gemcitabine, listed as XC-608): effective in sensitizing

SMILES: O=C1[O][Pt]2([NH][C@@H]3CCCC[C@H]3[NH]2)[O]C1=O [oxaliplatin]
IC50 [4, 16]: 2500 nM
IC50 [4, 17]: 1100 nM
IC50 [4, 18]: 1300 nM
IC50 [4, 19]: 1600 nM
